{"source": "patent US11633502B2", "about": "“Bone marrow-, reticuloendothelial system-, and/or lymph node-targeted radiolabeled liposomes and methods of their diagnostic and therapeutic use” (Memorial Sloan Kettering Cancer Center, priority 2016, dated 2023)", "experiment": "Blood cell counts of GT3 liposome treated mice after ionizing radiation", "assay_type": "in vivo, C57/B6 mice", "details": "after exposure to 2 or 4 Gy", "method": "FIGS. 28A and 28B show blood cell counts of GT3 liposome treated mice after ionization radiation. White blood cell (WBC) (FIG. 28A) and lymph (FIG. 28B) counts are shown for mice treated with 2 Gy+GT3 containing liposomes, 2 Gy, 4 Gy+GT3 containing liposomes, and 4 Gy.\nC57/B6 mice were treated with GT3 containing BMT liposomes with 10 mg/kg GT3 at 24 h prior to 2 and 4 Gy. Blood cells were counted at 0, 1, 4, 6, 13 days after irradiation. […] Lymphocyte recovery is the most significant. […] This effect was not seen when GT3 was not targeted to the bone marrow."}
{"molecule": "CC(C)=CCC/C(C)=C/CC/C(C)=C/CC[C@]1(C)CCc2cc(O)c(C)c(C)c2O1", "note": "[GT3]", "values": [{"measurement": "recovery of lymphocyte and neutrophils", "value": "not seen"}]}
